“Also recorded” adds a separate entry of the source.
Tests used:
[1] = test system: influenza virus; experiment: Effect on viral load in lungs of influenza mice (qPCR); format: in vivo, ICR female mice
[2] = test system: antiviral protein MxA; format: in vivo, ICR female mice; conditions: qPCR, GAPDH internal reference, 2^-ΔΔt, times that of the model group
[3] = test system: influenza virus; experiment: Effect on body weight of influenza mice; format: in vivo, ICR female mice; conditions: fourth day after challenge, bacteria 10^9 CFU intragastrically daily from two weeks before challenge, ribavirin intraperitoneally from second day
[4] = test system: influenza virus; experiment: Effect on blood indexes (neutrophils, lymphocytes) of influenza mice; parameters: species or system ICR female mice; conditions: mouse, in vivo
[5] = test system: influenza virus; parameters: species or system ICR female mice; conditions: mouse, in vivo

SMILES: NC(=O)c1ncn([C@@H]2O[C@H](CO)[C@@H](O)[C@H]2O)n1 [Treatment, ribavirin]
- reduction in viral load in the lungs (significance versus model group) ([1]; mouse, in vivo): has significance
- viral load in the lungs, relative to the model group ([1]; right lung, fifth day after challenge, qPCR, GAPDH internal reference, 2^-ΔΔt, % of that of the model group): 38.03%
- expression quantity of MxA in the lungs, relative to the model group (Model) [2]: 2.62 times
- body weight decrease compared with the control group (Control) [3]: about 5%
- lymphocytes, change compared with the blank control group (Control) [4]: without significant differences
- neutrophils, change compared with the blank control group (Control) [4]: without significant differences
- lung histopathology (inflammation, infiltration of inflammatory cells) [5]: mild infiltration of inflammatory cells; also recorded: relatively mild inflammation; also recorded: some moderate and mild inflammation
